Results on 2 molecules are retold here after ChEMBL document CHEMBL6127066, “Pegylation enhances the anti-osteoporosis activity of acacetin in both ovariectomized and LPS-stimulated mice” (Bioorg Med Chem, 2024).

For data set [1], the species on record is Mus musculus. Kind of data set: Anti-osteoporosis activity LPS induced male C57BL/6J mouse model assessed as reduction of CTX-I level by ELISA method. It is filed as functional, organism-based.
The species entered for data set [2] is Mus musculus. The experiment in a line: Anti-osteoporosis activity OVX-induced […] C57BL/6J mouse model assessed as reduction of CTX-I level by ELISA method. Type of data set: functional, organism-based. (In general: ELISA stands for enzyme-linked immunosorbent assay.)
The test system of data set [3] is RAW264.7. The experiment in a line: Antiinflammatory activity in LPS-induced mouse RAW264.7 cells assessed as inhibition of Tnf mRNA expression at 10 uM preincubated for 3 hrs followed by LPS stimulation and measured after 6 hrs by RT-PCR analysis. It is filed as functional, cell-based. The conditions noted are these: time 9.0 hrs.
Data set [4] relates to BMDM. Kind of data set: Anti-osteoclastogenesis activity in RANKL-induced mouse BMDM cells assessed as downregulation of Fos mRNA expression at 10 uM measured after 4 days by RT-PCR analysis. It is filed as functional, cell-based. The conditions noted are these: time 4.0 day.
The species entered for data set [5] is Mus musculus. The experiment in a line: Anti-osteoporosis activity OVX-induced […] C57BL/6J mouse model assessed as reduction of trabecular bone in femur by H and E staining based analysis. It is filed as functional, organism-based.
Data set [6] is filed under the species Mus musculus. The experiment in a line: Anti-osteoporosis activity OVX-induced […] C57BL/6J mouse model assessed as attenuation of number of osteoclast by TRAP staining based analysis. Type of data set: functional, organism-based.
Data set [7] relates to BMDM. Kind of data set: Anti-osteoclastogenesis activity in RANKL-induced mouse BMDM cells assessed as downregulation of Ctsk-mRNA expression at 10 uM measured after 4 days by RT-PCR analysis. Type of data set: functional, cell-based. The conditions noted are these: time 4.0 day.
For data set [8], the system named is Mus musculus. Kind of data set: Anti-osteoporosis activity in OVX-induced […] C57BL/6J mouse model assessed as improvement in trabecular number in femur at 9.36 mg/kg measured every three days for 7 weeks by Micro-CT 3D scanning analysis. It is filed as functional, organism-based.
Data set [9] is described as follows: Cytotoxicity against mouse BMDM cells at <20 uM measured after 48 to 96 hrs by CCK-8 method. It is filed as toxicity, cell-based. The conditions noted are these: time 48-96 hrs. In general terms: Formazan colour is commonly taken as a measure of viable cells.
Data set [10] relates to RAW264.7. The experiment in a line: Antiinflammatory activity in LPS-induced mouse RAW264.7 cells assessed as inhibition of Il6 mRNA expression at 10 uM preincubated for 3 hrs followed by LPS stimulation and measured after 6 hrs by RT-PCR analysis. It is filed as functional, cell-based. The conditions noted are these: time 9.0 hrs.
Data set [11] relates to BMDM. Kind of data set: Anti-osteoclastogenesis activity in RANKL-induced mouse BMDM cells assessed as reduction in number of TRAP-positive cells at 10 uM measured after 4 days by TRAP staining based analysis. It is filed as functional, cell-based. The conditions noted are these: time 4.0 day.
The subject of data set [12] is BMDM. The experiment in a line: Anti-osteoclastogenesis activity in RANKL-induced mouse BMDM cells assessed as downregulation of Acp mRNA expression at 10 uM measured after 4 days by RT-PCR analysis. The conditions noted are these: time 4.0 day. It is filed as functional, cell-based.
Data set [13] is filed under the species Mus musculus. Kind of data set: Anti-osteoporosis activity LPS induced male C57BL/6J mouse model assessed as increase in density of cancellous bone trabeculae in femur by H and E staining based analysis. Type of data set: functional, organism-based.
Data set [14] relates to Mus musculus. The experiment in a line: Anti-osteoporosis activity LPS induced male C57BL/6J mouse model assessed as increase in trabecular number in femur at 9.36 mg/kg measured every 2 days for 12 day by Micro-CT 3D scanning method. Type of data set: functional, organism-based.
The subject of data set [15] is BMDM. Kind of data set: Anti-osteoclastogenesis activity in RANKL-induced mouse BMDM cells assessed as downregulation of TRAP mRNA expression at 10 uM measured after 4 days by RT-PCR analysis. Type of data set: functional, cell-based. The conditions noted are these: time 4.0 day.
In data set [16] the test system is Mus musculus. Kind of data set: Anti-osteoporosis activity in OVX-induced […] C57BL/6J mouse model assessed as improvement in BMD in femur at 9.36 mg/kg measured every three days for 7 weeks by Micro-CT 3D scanning analysis. It is filed as functional, organism-based.
The test system of data set [17] is Mus musculus. Kind of data set: Anti-osteoporosis activity in OVX-induced […] C57BL/6J mouse model assessed as improvement in trabecular thickness in femur at 9.36 mg/kg measured every three days for 7 weeks by Micro-CT 3D scanning analysis. Type of data set: functional, organism-based.
For data set [18], the system named is Mus musculus. The experiment in a line: Anti-osteoporosis activity in OVX-induced […] C57BL/6J mouse model assessed as improvement in trabecular bone volume fraction in femur at 9.36 mg/kg measured every three days for 7 weeks by Micro-CT 3D scanning analysis. It is filed as functional, organism-based.
Data set [19] is filed under the species Mus musculus. The experiment in a line: Anti-osteoporosis activity LPS induced male C57BL/6J mouse model assessed as attenuation of number of osteoclast per unit of trabecular bone area by TRAP staining based analysis. Type of data set: functional, organism-based.
The nature of data set [20]: Drug uptake in male C57BL/6J mouse serum assessed as increase in acacetin level at 93.6 mg/kg, ip measured after 10 mins. Type of data set: ADME, organism-based. The conditions noted are these: in vivo.
The subject of data set [21] is BMDM. Kind of data set: Anti-osteoclastogenesis activity in RANKL-induced mouse BMDM cells assessed as reduction in TRAP-positive area at 10 uM measured after 4 days by TRAP staining based analysis. It is filed as functional, cell-based. The conditions noted are these: time 4.0 day.
Data set [22] deals with Mus musculus. The experiment in a line: Anti-osteoporosis activity LPS induced male C57BL/6J mouse model assessed as increase in trabecular bone volume fraction in femur at 9.36 mg/kg measured every 2 days for 12 day by Micro-CT 3D scanning method. It is filed as functional, organism-based.
Data set [23] relates to Mus musculus. Kind of data set: Anti-osteoporosis activity LPS induced male C57BL/6J mouse model assessed as increase in BMD in femur at 5 mg/kg measured every 2 days for 12 day by Micro-CT 3D scanning method. It is filed as functional, organism-based.
In data set [24] the test system is Mus musculus. The experiment in a line: Anti-osteoporosis activity in OVX-induced […] C57BL/6J mouse model assessed as improvement in BMD in femur at 5 mg/kg measured every three days for 7 weeks by Micro-CT 3D scanning analysis. It is filed as functional, organism-based.
Data set [25] is described as follows: Drug uptake in male C57BL/6J mouse serum assessed as increase in acacetin level at 50 mg/kg, ip measured after 10 mins. Type of data set: ADME, organism-based. The conditions noted are these: in vivo.
The test system of data set [26] is Mus musculus. Kind of data set: Anti-osteoporosis activity LPS induced male C57BL/6J mouse model assessed as increase in trabecular number in femur at 5 mg/kg measured every 2 days for 12 day by Micro-CT 3D scanning method. It is filed as functional, organism-based.
The test system of data set [27] is Mus musculus. The experiment in a line: Anti-osteoporosis activity in OVX-induced […] C57BL/6J mouse model assessed as improvement in trabecular bone volume fraction in femur at 5 mg/kg measured every three days for 7 weeks by Micro-CT 3D scanning analysis. It is filed as functional, organism-based.
Data set [28] concerns Mus musculus. Kind of data set: Anti-osteoporosis activity in OVX-induced […] C57BL/6J mouse model assessed as improvement in trabecular number in femur at 5 mg/kg measured every three days for 7 weeks by Micro-CT 3D scanning analysis. Type of data set: functional, organism-based.
Data set [29] concerns Mus musculus. The experiment in a line: Anti-osteoporosis activity in OVX-induced […] C57BL/6J mouse model assessed as improvement in trabecular thickness in femur at 5 mg/kg measured every three days for 7 weeks by Micro-CT 3D scanning analysis. It is filed as functional, organism-based.
For data set [30], the system named is Mus musculus. The experiment in a line: Anti-osteoporosis activity LPS induced male C57BL/6J mouse model assessed as increase in trabecular thickness in femur at 5 mg/kg measured every 2 days for 12 day by Micro-CT 3D scanning method. Type of data set: functional, organism-based.
Data set [31] has as its system Mus musculus. The experiment in a line: Anti-osteoporosis activity LPS induced male C57BL/6J mouse model assessed as increase in trabecular bone volume fraction in femur at 5 mg/kg measured every 2 days for 12 day by Micro-CT 3D scanning method. Type of data set: functional, organism-based.

The structures appear in SMILES notation. Activity calls are given as the source filed them. The rule behind the calls is not given here.

In the case of `COCCOCCOCCOCCOCC(=O)Oc1cc(O)c2c(=O)cc(-c3ccc(OC)cc3)oc2c1`, the outcome in the data set listed under Mus musculus [1], in the data set filed under Mus musculus [2], in the data set on RAW264.7 [3], with BMDM [4], in the data set filed under Mus musculus [5] and in the data set listed under Mus musculus [6] was Active. In addition, the result in the data set with BMDM [7], in the data set on Mus musculus [8], in the data set on RAW264.7 [10], in the data set on BMDM [11], in the data set with BMDM [12] and in the data set listed under Mus musculus [13] was Active. In addition, the result with Mus musculus [14], in the data set on BMDM [15], in the data set with Mus musculus [16], with Mus musculus [17], in the data set on Mus musculus [18] and in the data set filed under Mus musculus [19] was Active. Also, the result in the data set on BMDM [21] and with Mus musculus [22] was Active. For the same molecule, the Activity result in [9] is “Non-Toxic”. The Drug uptake in data set [20] amounted to 3528.82 ng/mL.
Take `COc1ccc(-c2cc(=O)c3c(O)cc(O)cc3o2)cc1` [ACACETIN]: the result with Mus musculus [23], in the data set with Mus musculus [24], with Mus musculus [26], in the data set on BMDM [4], in the data set filed under Mus musculus [5] and in the data set filed under Mus musculus [6] was Active. Further, the result in the data set on Mus musculus [27], in the data set with BMDM [7], with BMDM [11], in the data set on BMDM [12], in the data set with Mus musculus [28] and in the data set filed under Mus musculus [13] was Active. Besides, the outcome in the data set on BMDM [15], with Mus musculus [29], in the data set filed under Mus musculus [19], with BMDM [21], in the data set on Mus musculus [30] and in the data set on Mus musculus [31] was Active. Moreover, in data set [25], the Drug uptake turned out to be 489.59 ng/mL. For the same molecule, the Activity entry in data set [9] is on record as “Non-Toxic”.
